Entries after “also recorded” stand apart in the source; their conditions may differ.

This note sets out measurements from US8846951B2 (AbbVie Inc., priority 2009, dated 2014).

For data set [1], the system named is conditioned avoidance response (CAR) behavior. Briefly: Conditioned avoidance responding in rats. The data set is classed as in vivo, rat. The following applies: male Wistar rats. The protocol:
The fact that antipsychotics have the unique ability to selectively suppress CAR behavior, made the CAR test a useful tool for the screening of new, potentially antipsychotic compounds. […] Animals Male Wistar rats (9-11 weeks old, Charles River, Germany) were pair-housed and allowed ad-libitum access to food and water. A 12-hour light/dark cycle was imposed with lights-on period between 0530 and 1730 hours. All testing occurred between 700 and 1300 hours. All procedures were approved by Abbott Institutional Animal Care and Use Committee (USA) or Animal Welfare Officer (Germany) and were conducted in accordance with the National Institutes of Health Guide for Care and Use of Laboratory Animals guidelines and applicable national laws in the facilities accredited by the Association for the Assessment and Accreditation of Laboratory Animal Care. Methods Wistar rats are exposed to a conditioned stimulus CS (a 2.9-kHz tone of 10 second duration), which is a signal for the animal that it must move into the other chamber in order to avoid an immediately ensuing footshock US (0.5 mA, 10 second, tone continues during shock presentation). Once the shock has begun, the animal can still escape it by moving to the other chamber. Each session is limited to a maximum of 40 trials (intertrial interval 10-90 seconds). The animals generally learn quickly to change chambers upon the conditioned stimulus and thus avoid further shocks. Scored are: • Avoided responses=crossings into other compartment within 10 seconds of tone presentation; • Escaped responses=crossings between 10-20 seconds of tone presentation; • Failures=crossings after cessation of tone-shock presentation or no crossing. […] At the test sessions (=CS-shock pairings), animals are pre-treated with a test drug or vehicle 30 minutes before commencement of the session.

In data set [2] the target is T1, 5HT2B receptors (Homo sapiens, UniProt P41595).
T1 construct: expressed in transfected cells; host or cells: CHO-K1 cells
Briefly: Human 5-HT2B functional high throughput screening assay in CHO-K1 cells (calcium flux). Type of data set: cell-based. An outline of the steps: (§1)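 Agonism was measured as FLIPR fluorescence increase (480/530 nm, 25° C) with Ca4 dye and 2.5 mM probenecid, in serum-starved CHO-K1 lines overexpressing human 5-HT2C or 5-HT2B. Six-point 1:10 dilutions from 10 μM (0.2% DMSO final) were fitted by 4-parameter logistics. Responses were normalised to serotonin to give EC50 and % Emax.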
In general terms: Calcium assays in cells follow changes in intracellular calcium, usually with a dye or a luminescent sensor.

Data set [3] deals with SHR pups. Briefly: 5-trial inhibitory avoidance/impulsivity model in pups of spontaneously hypertensive rat. The data set is classed as in vivo. The following applies: sc 1, 3 and 10 mg/kg, acute, compared to vehicle. From the text:
(ix) 5-Trial Inhibitory Avoidance/Impulsivity Model in the Pups of Spontaneously Hypertensive Rat
However, the adult rats have spontaneous hypertension which may confound behavioral assessment. The juvenile SHRs were used in the current study since these pups show similar behavioral deficits while having not developed hypertension. The aim was to investigate the efficacy of 5-HT2c agonists in SHR pups in an inhibitory avoidance model, as indication of enhancement of inhibitory control/or anti-impulsivity.
SHR pups at postnatal day 21-28 were sc dosed with either vehicle or Example 115 (1, 3, and 10 mg/kg; dissolved in tartaric acid/PH4-6) 30 minutes prior to the test. Upon testing initiation, pups were placed into the light side of a computer controlling 2-chambered compartment. The latency to enter the adjoining dark chamber was recorded, and an inescapable footshock (0.1 mA, 1 second duration) was presented to the pup. The pup was removed, placed back into the home cage for approximately 1 minute, and the process repeated for a total of 5 trials. The dependent variable used for data analysis was the total transfer latency of trial 2 to trial 5.

The target in data set [4] is T2, 5HT2C receptors (Homo sapiens, UniProt P28335).
T2 sequence (P28335 33-458): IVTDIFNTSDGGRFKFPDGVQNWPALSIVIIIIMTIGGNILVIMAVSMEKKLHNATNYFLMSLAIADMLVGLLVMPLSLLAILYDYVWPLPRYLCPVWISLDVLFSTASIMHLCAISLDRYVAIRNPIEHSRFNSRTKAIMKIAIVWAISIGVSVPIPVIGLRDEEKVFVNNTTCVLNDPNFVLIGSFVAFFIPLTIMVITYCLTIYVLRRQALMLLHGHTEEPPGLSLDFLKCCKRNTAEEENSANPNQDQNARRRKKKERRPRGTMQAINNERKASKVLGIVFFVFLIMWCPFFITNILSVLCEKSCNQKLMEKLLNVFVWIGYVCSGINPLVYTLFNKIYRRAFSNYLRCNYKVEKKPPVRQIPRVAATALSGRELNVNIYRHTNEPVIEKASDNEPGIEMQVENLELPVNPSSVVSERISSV
Briefly: Human 5-HT2C functional high throughput screening assay in CHO-K1 cells (calcium flux). The data set is classed as cell-based. Also noted: expressed in transfected cells; host or cells: CHO-K1 cells. The procedure, abridged: as §1

T1 sequence (P41595 whole entry): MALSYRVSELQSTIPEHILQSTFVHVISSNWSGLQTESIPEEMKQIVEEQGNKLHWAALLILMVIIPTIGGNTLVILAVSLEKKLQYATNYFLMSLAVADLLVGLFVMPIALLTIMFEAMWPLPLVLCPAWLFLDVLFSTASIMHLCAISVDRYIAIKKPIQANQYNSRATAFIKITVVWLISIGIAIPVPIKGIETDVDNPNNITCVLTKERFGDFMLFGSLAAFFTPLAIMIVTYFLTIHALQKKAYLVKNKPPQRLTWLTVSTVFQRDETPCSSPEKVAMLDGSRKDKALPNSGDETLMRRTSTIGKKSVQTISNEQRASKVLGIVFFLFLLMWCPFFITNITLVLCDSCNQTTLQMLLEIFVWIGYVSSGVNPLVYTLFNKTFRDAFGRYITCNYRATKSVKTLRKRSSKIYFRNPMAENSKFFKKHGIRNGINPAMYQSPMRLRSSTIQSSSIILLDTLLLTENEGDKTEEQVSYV

`CN1C[C@@H]2CNC(=O)c3cc(-c4ccc(F)cc4)ccc3[C@H]2C1` [Example 115, (3aS,10bS)-8-(4-Fluorophenyl)-2-methyl-1,2,3,3a,4,5-hexahydrobenzo[e]pyrrolo[3,4-c]azepin-6(10bH)-one]: the “conditioned avoidance behavior (avoided responses)” value in data set [1] (acute, 30 minutes before session) is “significantly suppressed conditioned avoidance behavior”. In addition, in data set [1] (indicator of sedation or extrapyramidal side effects), the number of failures result is recorded as “without affecting the number of failures”. Further, the EC50 was over 10000 nM in data set [2] (5-HT2B agonist activity, CHO-K1 cells, calcium flux, read-out: EC50) and 2 nM in data set [4] (5-HT2C agonist activity, CHO-K1 cells, calcium flux, read-out: EC50). For the same compound, the Emax entry was “inactive” in data set [2] (5-HT2B, maximum functional response as percentage relative to the effect of serotonin) and over 120% in data set [4] (CHO-K1, 5-HT2C, maximum functional response as percentage relative to the effect of serotonin, read-out: Emax). Also, the “total transfer latency of trial 2 to trial 5” value in data set [3] was “dose-dependent increase in transfer latencies; also recorded: dose-dependent improvement in 5-trial inhibitory avoidance scores”.

What is called EC50 is the concentration needed to bring the measured effect to its halfway point. Usually Emax stands for the size of the effect at its maximum, as opposed to the concentration needed.
